Measured values published in publication PMC10747602, “Dose Response, Dosimetric, and Metabolic Evaluations of Replacement PFAS Perfluoro-(2,5,8-trimethyl-3,6,9-trioxadodecanoic) Acid (HFPO-TeA)” (Toxics, 2023).

Legend:
[1] = Non-targeted analysis of plasma and liver (in vivo); parameters: species or system Sprague Dawley rats; conditions: for relative peak area abundance (RA) vs. HFPO-TeA, Plasma: 5 days, mean ± SD n=8
Procedure: Extracts of plasma (50 µL), liver (10 mg), and hepatocyte metabolism assay media (10 µL) were analyzed by high-resolution, accurate mass non-targeted analysis (NTA) for the detection and identification of potential biotransformation products of HFPO-TeA. A mixture of ^13C-labeled PFAS compounds (MPAC-C-ES, Wellington Laboratories, Guelph, ON, Canada) were used as tracers. Samples were extracted, as detailed above (in vivo) and below (in vitro), and then analyzed in triplicate in a randomized order on a Sciex X500R QTOF. Additional information on NTA instrumental analysis and data processing parameters is presented in Supplementary Text S8 and Tables S8 and S10 [52]. […] A screening list of potential biotransformation products was generated using the U.S. EPA web application CTS: Chemical Transformation Simulator 1.0 and Biotransformer 3.0 [53, 54]. In some instances, molecular structure predictions were performed using MetFrag. […]
tube, and then further crashed with 200 µL ACN. This was repeated twice more to generate a final combined supernatant volume of 600 µL. Supernatants were stored at -20 °C prior to analysis.
Samples were quantitated against matrix-matched calibration curves containing a minimum of 5 points spanning the range 0.99 – 141 ng/mg liver (wet weight, ww). For the calibration standards, commercial rat liver (BioIVT) was spiked with HFPO-TeA and PFHxDA, homogenized, and extracted using the above procedure. […]
Support ing Text S8: Non- Target ed Analysis Met hod and Data Processing Each sample batch included a mobile phase blank and solvent blank to monitor for the presence of laboratory contamination, and a system suitability sample consisting of the set of isotopically labeled PFAS tracer compounds spiked into extraction solvent to monitor instrument performance prior to sample analysis. […] A high-resolution, exact mass spectral library created in house from IDA scans of commercially available PFAS standards analyzed on the same mass spectrometer as the samples and using the same instrument parameters was used for library searches. […]

[2] = test system: rats; parameters: method as in PMID 28962433, PMID 30920876; conditions: exposures up to 500 mg/kg/day; cited from earlier work

O=C(O)C(F)(OC(F)(F)C(F)(OC(F)(F)C(F)(F)C(F)(F)F)C(F)(F)F)C(F)(F)F (stereo not shown) [HFPO-TA, perfluoro-(2,5-dimethyl-3,6-dioxanonanoic) acid]
relative peak area abundance (RA) vs. HFPO-TeA, Plasma ([1]; HFPO-TeA dose 6.3 mg/kg/day): 0.05 ± 0.04 | relative peak area abundance (RA) vs. HFPO-TeA, Plasma ([1]; HFPO-TeA dose 17 mg/kg/day): 1.83 ± 0.85

O=C(O)C(F)(OC(F)(F)C(F)(F)C(F)(F)F)C(F)(F)F (stereo not shown) [HFPO-DA, perfluoro-2-methyl-3-oxahexanoic acid]
premature mortality [2]: no reported premature mortality

O=C(O)C(F)(OC(F)(F)C(F)(OC(F)(F)C(F)(OC(F)(F)C(F)(F)C(F)(F)F)C(F)(F)F)C(F)(F)F)C(F)(F)F (stereo not shown) [HFPO-TeA, perfluoro-(2,5,8-trimethyl-3,6,9-trioxadodecanoic) acid]
presence of predicted conjugates (non-targeted analysis) ([1]; plasma or liver): No ions that suggested the presence of the three predicted HFPO-TeA conjugates were observed
